The record followed here is publication PMC12030284, “Anti-Breast Cancer Properties and In Vivo Safety Profile of a Bis-Carbazole Derivative” (Pharmaceutics, 2025).

The test system of one test is Bid. The test is described as follows: Bid immunofluorescence and mitochondria staining. The test is classed as cell-based, human. Particulars: MDA-MB-231 cells, 0.3 µM, 24 h. As for the experimental part:
(§1) Cells grown on glass coverslips in full medium were serum-deprived for 24 h and exposed to 1 for 24 h at its IC50 value concentration. Cells were PBS-washed and fixed (cold methanol, 15 min, −20 °C), then primary antibody in blocking solution was added (4 °C/overnight), as described. The mouse anti-Bid (sc-373939) and anti-β-Actin (69879) and the rabbit anti-β Tubulin (9104) were obtained from Santa Cruz Biotechnology and employed at a 1:100 dilution. Coverslips were washed thrice with PBS, then the secondary antibody Alexa Fluor® 568 conjugate goat-anti-mouse and Alexa Fluor® 488 conjugate goat-anti-rabbit (1:500, Thermo Fisher Scientific, Waltham, MA, USA) was added. Nuclei were DAPI (Sigma Aldrich, Mila, Italy) stained (10 min, 0.2 μg/mL) and PBS washed thrice. For mitochondrial staining, cells were pre-incubated with prewarmed (37 °C) MitoTracker® Deep Red FM probe solution (MitoTracker® Mitochondrion-Selective Probes, Invitrogen European Headquarters, Paisley PA4 9RF, UK) for 20 min (fluorescence excitation = 644, fluorescence emission = 665). A fluorescence microscope (Leica DM 6000) and LAS-X software (Leica Application Suite X, 3.5.7.23225) were used to acquire and process all images.

In test [1] the test system is MCF-10A human mammary epithelial cells. The test is described as follows: MTT cell viability assay, MCF-10A. Type of test: cell-based. Particulars: 72 h, normal cells, mean ± SD of three experiments. As for the experimental part:
The three cell lines adopted in this work (MCF-7, MDA-MB-231 and MCF-10A) were obtained from the American Type Culture Collection (ATCC, Manassas, VA, USA). MCF-7 human breast cancer cells were cultured in Dulbecco’s modified Eagle’s medium/nutrient mixture Ham F-12 (DMEM/F12), added with 10% fetal bovine serum (FBS) and 100 U mL^−1 penicillin/streptomycin. MDA-MB-231 human breast cancer cells were maintained in DMEM/F12 added with 5% FBS, 1% L-glutamine and 100 U mL^−1 penicillin/streptomycin. MCF-10A human mammary epithelial cells were cultured in DMEM/F12 medium added with 5% horse serum (HS, Thermo Fisher Scientific, Milan, Italy), 100 U mL^−1 penicillin/streptomycin, 0.5 mg mL^−1 hydrocortisone, 20 ng mL^−1 human epidermal growth factor (hEGF), 10 mg mL^−1 insulin, and 0.1 mg mL^−1 cholera enterotoxin (Sigma–Aldrich, Milan, Italy). Cells were cultured at 37 °C in a humidified atmosphere (95% air and 5% CO2) and periodically screened for checking contamination.
The 3-(4,5-dimethylthiazol-2-y1)-2,5-diphenyltetrazolium Bromide (MTT, Sigma–Aldrich, Milan, Italy) assay was used for determining cell viability. Cells were seeded on forty-eight well plates and cultured in a complete medium. Next, cells were serum-deprived (24 h). Then, cells were exposed to the tested compounds in phenol-red-free medium added with 1% of serum for 72 h. After medium removal, MTT solution was added to each well (0.5 mg/mL) and incubated at 37 °C (2 h). Cells were lysed (DMSO), and the optical density was measured (570 nm) using a microplate reader. Mean absorbance was reported as a percentage versus control, and IC50 values were calculated using GraphPad Prism 8 software (version 8.4.3., GraphPad Inc., San Diego, CA, USA). The selectivity index was obtained by the ratio of IC50 values calculated for normal and cancer cells. Data represent three independent experiments; standard deviations (SD) were reported.
On the technique in general: Tetrazolium dyes change colour on reduction, which living cells bring about.

Test [2] concerns actin network in MDA-MB-231 cells. The test is described as follows: β-actin immunofluorescence. Particulars: 0.3 µM, 24 h. The test is classed as cell-based, human. As for the experimental part:
as §1

The next test concerns tubulin. The test is described as follows: In vitro tubulin polymerization assay. Type of test: biochemical. Conditions: 1 µM. As for the experimental part: The tubulin polymerization inhibition was detected using the in vitro Tubulin Polymerization Assay Kit (EMD Millipore Corporation, Burlington, MA, USA), following the procedure previously published. Briefly, polymerization reactions were performed in 70 µL final volumes (60 µL of the 60 µM tubulin in 1xPB-GTP and 10 µL of the test substance dissolved in 1xPB-GTP). Paclitaxel and Vinblastine (both at 10 µM) and 1 (1 µM) were dissolved in DMSO. The turbidity variation was measured every 30 s at 350 nm for 90 min. Turbidity (absorbance) readings were used to determine the extent of polymerization [% inhibition = (1 − A350 sample/A350 control) × 100].

For the next test, the system named is MDA-MB-231 cells. The test is described as follows: TUNEL assay (nuclear DNA damage / apoptosis). Type of test: cell-based, human. Particulars: 0.3 µM, 24 h. As for the experimental part: The TUNEL assay was used for apoptosis detection, according to the manufacturer’s instructions (CF^TM488A TUNEL Assay Apoptosis Detection Kit, Biotium, Hayward, CA, USA), with some modifications (ref). Shortly, cells were grown on glass coverslips, then treated with 1 at its IC50 value. After that, they were PBS washed thrice, then methanol-fixed (−20 °C, 15 min). Cells were fixed and incubated with the enzyme and, next, counterstained with DAPI (0.2 mg mL^−1) (10 min, room temperature). Cells were washed three times with cold PBS; the mounting solution was added and observed and imaged using a fluorescence microscope (Leica DM6000, Leica Microsystems Srl, Milan, I-20090, Italy; 20× magnification) with excitation/emission wavelength maxima of 490 nm/515 nm (CF^TM488A) or 350 nm/460 nm (DAPI). Images represent two independent experiments, and representative fields were shown.

The subject of test [3] is microtubule network in MDA-MB-231 cells. The test is described as follows: β-tubulin immunofluorescence. The test is classed as cell-based, human. Conditions: 0.3 µM, 24 h. As for the experimental part: as §1
A further test relates to caspase-8. The test is described as follows: Caspase-Glo 8 assay. The test is classed as cell-based, human. Particulars: MDA-MB-231 cells, 0.3 µM, 24 h, versus DMSO-treated cells. As for the experimental part:
Caspases-3/7, -8, and -9 activities were determined using the Caspase-Glo® 3/7, 8, and 9 Assay Systems (Promega Corporation, Madison, WI, USA) as previously described.

One may read the IC50 as the midpoint of a concentration-inhibition curve. Low values mean greater potency, high ones weaker potency.

Consider `Cc1cc(C=NN=Cc2cc(C)c3[nH]c4ccc(Br)cc4c3c2C)c(C)c2c1[nH]c1ccc(Br)cc12` [Compound 1, N,N’-bis-(6-bromo-1,4-dimethyl-9H-carbazol-3-ylmethylene)-hydrazine], for which, in the test on Bid, the Bid localization result was “net translocation of Bid into the mitochondrial compartment”. Further, the IC50 in test [1] is more than 100 µM. Also, the actin network morphology entry in test [2] is given as “formation of thicker actin bundles”. Besides, the “effect on tubulin polymerization reaction” value in the test with tubulin is listed as “acts as a microtubule stabilizer”. Further, in the test on tubulin (control reaction (DMSO) about 0.41), the “final OD350 value of tubulin polymerization” value amounted to 0.48. The “TUNEL staining (nuclear DNA damage)” value in the test on MDA-MB-231 cells is listed as “TUNEL-positive”. The microtubule network morphology result in test [3] is on record as “net disorganization of the microtubule network”. Further, in the test with caspase-8, the “increase of caspase-8 activity” value is “about 60%”.
